Data reported in patent US5747535A, “Selective thrombin inhibitors” (priority 1995, dated 1998).
Where two headings read alike, the source gives them in different places.

What was measured:
[1] = human being; Osamu et al. 1986; cited from earlier work
bovine thrombin [2] = biological target: T1, bovine thrombin (Bos taurus, UniProt P00735); settings: for Ki: read-out: Inhibitory activity for thrombin, Ki, bovine thrombin, pH 7.8, initial velocity, reaction started with enzyme;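 for all read-outs here: bovine thrombin cleaving the chromogenic substrate Chromozym TH, with para-nitroaniline release tracked as absorbance change over time to give initial rates, in Tris buffer at pH 7.8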
Description: (§1) The thrombin inhibitory effect of the compound of formula (I) according to the present invention can be identified by determination of a dissociation constant Ki represented by the following equation according to the known method described in literature [see, Methods in enzymology V. 80,p341-361;Biochemistry 27,p2144-2151 (1988)].
(§2) The dissociation constant Ki denotes the degree of dissociation of the enzyme-thrombin inhibitor complex. […] Such dissociation constant can be determined by reacting thrombin with a certain substrate which develops a color when it is hydrolyzed by the action of thrombin, and then measuring the degree of color development as a function of time by means of spectrophotometry.
(§3) Chromozym TH is hydrolyzed by thrombin to produce yellow para-nitroaniline. Accordingly, the amount of yellow para-nitroaniline thus produced can be measured as the change of absorbance in the course of time to determine the thrombin inhibitory activity of the compound according to the present invention. That is, the enzyme activity can be determined from the rate of change in absorbance and then can be directly connected with the ability of the thrombin inhibitor to inhibit the enzyme activity (see, Methods in Enzymology, V. 80,p341-361,Biochemistry 27, p2144-2151, 1988).
(§4) The ability of the compound according to the present invention to inhibit the thrombin activity was determined as described in the following.
(§5) 1160 μl of 0.1M tris buffered solution (pH 7.8) containing 150 mM NaCl and 0.1% PEG 8000 (polyethylene glycol, molecular weight about 8,000) was added to a 1.5 ml cuvette. Chromozym TH was dissolved in dimethylsulfoxide(DMSO) in the concentration of 10mM and the resulting solution was diluted with the said tris buffered solution to the concentration of 0.1 mM, which was then used as the substrate solution. 225 μl of 0.1 mM substrate solution thus prepared was added to the cuvette. The inhibitor solution was prepared by dissolving the thrombin inhibitor compound according to the present invention in dimethylsulfoxide in the concentration of 10 mg/ml and then diluting the resulting solution with the said tris buffered solution to the concentration of 0.1 mg/ml, 0.01 mg/ml, 0.001 mg/ml and 0.0001 mg/ml. The resulting inhibitor solution was taken in an amount corresponding to 0 to 10 μg as the inhibitor and then diluted with tris buffered solution to make the total volume of 100 μl which was added to the cuvette.
(§6) 15 μl of bovine thrombin solution dissolved in above tris buffered solution in the concentration of 0.1 mg/ml was added to the cuvette to initiate the enzyme hydrolysis reaction. The amount of para-nitroaniline produced for 2 minutes from the moment the enzyme is added was monitored by measuring the absorbance at 381 nm. The continuous spectrum of absorbance to reaction time was depicted. The same experiments were conducted for various concentration of the inhibitor to obtain the continuous spectrum.
(§7) In each spectrum, the initial velocity Vi was obtained from the slope within initial 30 seconds of the reaction time and then a graph for the reciprocal value of initial velocity(1/Vi) to the inhibitor concentration was depicted. From the graph, the primary equation satisfying the points depicted thereon was obtained and then the value Ki was calculated from the x intercept of the primary equation using the enzyme reaction equation.
(§8) The velocity constant Ks was obtained using the same solution in the same concentration as in determination of the value Ki but using the following experimental procedure.

trypsin = biological target: T2, trypsin (Bos taurus, UniProt P00760); experiment: biochemical; format: biochemical; settings: 20 μM substrate; read-out: Inhibitory activity for trypsin, Ki
T2 sequence (P00760 24-246): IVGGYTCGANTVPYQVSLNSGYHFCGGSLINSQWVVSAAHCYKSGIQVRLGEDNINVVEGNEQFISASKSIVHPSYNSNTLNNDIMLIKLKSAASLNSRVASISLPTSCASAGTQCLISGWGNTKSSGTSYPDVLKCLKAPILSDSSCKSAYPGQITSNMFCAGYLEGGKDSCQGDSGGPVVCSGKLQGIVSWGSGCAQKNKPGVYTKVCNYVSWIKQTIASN
Procedure: To identify the selectivity for thrombin over trypsin of the compound of the present invention, the inhibitory activity for trypsin of the compound of formula (I) is measured as Ki value according to the same method as the above method for determination of thrombin inhibitory activity, and then the ratio of the activity for trypsin to the activity for thrombin is calculated. In this case, the procedure for determination of inhibitory activity for trypsin is substantially identical to that for thrombin, except that N-benzoyl-Val-Gly-Arg para-nitroanilide hydrochloride is used as the substrate.
As the substrate 20μM solution of N-benzoyl-Val-Gly-Arg-p-nitroanilide hydrochloride was used, and the inhibitor was used in various concnetrations within the range of […]. In addition, trypsin was dissolved in 0.1N HCl, adjusted to the concentration of 45 μg/ml with the said tris buffered solution just before the experiment, and then used in an amount of 40μl. As in the experiment for thrombin, a total volume of the reaction solution was 1.5 ml and the remaining procedure was conducted in the same manner.

bovine thrombin [3] = biological target: T1, bovine thrombin; experiment: biochemical
Description: as §1, §2, §3, §4, §5, §6, §7, §8

thrombin over trypsin = settings: cited from earlier work
[4] = literature, cited from earlier work

| Compound | Ki (bovine thrombin [2]) [nM] | Ki (trypsin) [nM] | Ki (bovine thrombin [3]) [nM] | also measured |
| --- | --- | --- | --- | --- |
| CC1CNc2c(cccc2S(=O)(=O)N[C@@H](CCCNC(=N)N)C(=O)N2CC[C@@H](C)C[C@@H]2C(=O)O)C1 (stereo partly shown) [Argatroban] | – | – | – | elimination half-life [1]: 40 min |
| CCCCN(C)C(=O)[C@H](Cc1ccc(C(=N)NN)cc1)NS(=O)(=O)c1ccc2ccccc2c1 [Example 2, (S)-N-butyl-N-methyl-3-(4-amidrazonophenyl)-2-(2-naphthylsulfonylamino)propionamide] | 41 | – | – | – |
| CCCN(C(=O)[C@H](Cc1ccc(C(=N)NN)cc1)NS(=O)(=O)c1ccc2ccccc2c1)C1CCCC1 [Example 3, (S)-N-cyclopentyl-N-propyl-3-(4-amidrazonophenyl)-2-(2-naphthylsulfonylamino)propionamide] | 93 | – | – | – |
| CCCCN(C(=O)[C@H](Cc1ccc(C(=N)NN)cc1)NS(=O)(=O)c1ccc2ccccc2c1)C1CCCC1 [Example 5, (S)-N-cyclopentyl-N-butyl-3-(4-amidrazonophenyl)-2-(2-naphthylsulfonylamino)propionamide] | 231 | – | – | – |
| N=C(NN)c1ccc(C[C@H](NS(=O)(=O)c2ccc3ccccc3c2)C(=O)N(O)C2CCCC2)cc1 [Example 10, (S)-N-cyclopentyl-N-hydroxy-3-(4-amidrazonophenyl)-2-(2-naphthylsulfonylamino)propionamide] | 367 | – | – | – |
| CN(C(=O)[C@H](Cc1ccc(C(=N)NN)cc1)NS(=O)(=O)c1ccc2ccccc2c1)C1CCCCC1 [Example 15, (S)-N-cyclohexyl-N-methyl-3-(4-amidrazonophenyl)-2-(2-naphthylsulfonylamino)propionamide] | 152 | – | – | – |
| CN(C(=O)[C@H](Cc1ccc(C(=N)NN)cc1)NS(=O)(=O)c1ccc2ccccc2c1)C1CC1 [Example 16, (S)-N-cyclopropyl-N-methyl-3-(4-amidrazonophenyl)-2-(2-naphthylsulfonylamino)propionamide] | 247 | – | – | – |
| COc1cccc2c(S(=O)(=O)N[C@@H](Cc3ccc(C(=N)NN)cc3)C(=O)N(C)C3CCCC3)cccc12 [Example 19, (S)-3-[4-(amidrazono)-phenyl]-N-cyclopentyl-N-methyl-2-(5-methoxy-naphthalene-1-sulfonylamino)-propionamide] | – | 5250 | 5.3 | – |
| COc1cc2ccc(S(=O)(=O)N[C@@H](Cc3ccc(C(=N)NN)cc3)C(=O)N(C)C3CCCC3)cc2cc1OC [Example 20, (S)-3-[4-(amidrazono)-phenyl]-N-cyclopentyl-N-methyl-2-(6,7-dimethoxy-naphthalene-2-sulfonylamino)-propionamide] | – | 2300 | 21.7 | – |
| CNC(=N)c1ccc(C[C@H](NS(=O)(=O)c2cccc3c(N(C)C)cccc23)C(=O)N(C)C2CCCC2)cc1 [Example 21, (S)-3-[4-(methylamidino)-phenyl]-N-cyclopentyl-N-methyl-2-(5-dimethylamino-naphthalene-1-sulfonylamino)-propionamide] | – | > 100000 | 25 | – |
| CN(C(=O)[C@H](Cc1ccc(C(=N)NN)cc1)NC(=O)COc1cccc2ccccc12)C1CCCC1 [Example 23, (S)-3-[4-(amidrazono)-phenyl]-N-cyclopentyl-N-methyl-2-[2-(naphthalen-1-yl-oxy)acetylamino]-propionamide] | – | 21700 | 2590 | – |
| CS(=O)(=O)N1CCN(C(=O)[C@H](Cc2ccc(C(=N)NN)cc2)NS(=O)(=O)c2ccc3ccccc3c2)CC1 [Example 50, (S)-naphthalene-2-sulfonic acid [1-(4-amidrazono)benzyl-2-(4-methylsulfonyl-piperazinyl)-2-oxoethyl]amide] | – | 5790 | 11 | – |
| N=C(N)c1ccc(CC(NC(=O)CNS(=O)(=O)c2ccc3ccccc3c2)C(=O)N2CCCCC2)cc1 (stereo not shown) [NAPAP] | – | – | – | thrombin inhibitory activity relative to activity for trypsin (selectivity) (thrombin over trypsin; literature): 50 times |
| N=C(N)N1CCC[C@@H](CNC(=O)C[C@H](NS(=O)(=O)c2ccc3ccccc3c2)C(=O)N(CC(=O)O)C2CC2)C1 [Ro 46-6240] | – | – | – | possibility for oral administration ([4]; oral): does not show any possibility for oral administration; half-life in blood [4]: short half-life in blood; selectivity for thrombin over trypsin (thrombin over trypsin; literature (J. Med. Chem. 1994, 37, 3889-3901)): improved selectivity for thrombin over trypsin |
| Gly-Pro-Arg-4-nitroanilide acetate [Chromozym TH, reference compound] | – | – | – | Km (bovine thrombin [2]; substrate of thrombin, constant enzyme concentration): 8.3 µM |
